Reference: patent publication EP4049726A1, “IMIDAZO[1,2-A]PYRAZINES AS INHIBITORS OF HASPIN AND THERAPEUTIC USES THEREOF” (Fundación del Sector Público Estatal Centro Nacional de …, priority 2021, dated 2022)

target: T1, HASPIN (Homo sapiens, UniProt Q8TF76); assay: HASPIN biochemical assay (ADP-Glo, HASPIN autophosphorylation); conditions: ATP 150 µM, 60 min at 30 °C
T1 sequence (Q8TF76 1-798): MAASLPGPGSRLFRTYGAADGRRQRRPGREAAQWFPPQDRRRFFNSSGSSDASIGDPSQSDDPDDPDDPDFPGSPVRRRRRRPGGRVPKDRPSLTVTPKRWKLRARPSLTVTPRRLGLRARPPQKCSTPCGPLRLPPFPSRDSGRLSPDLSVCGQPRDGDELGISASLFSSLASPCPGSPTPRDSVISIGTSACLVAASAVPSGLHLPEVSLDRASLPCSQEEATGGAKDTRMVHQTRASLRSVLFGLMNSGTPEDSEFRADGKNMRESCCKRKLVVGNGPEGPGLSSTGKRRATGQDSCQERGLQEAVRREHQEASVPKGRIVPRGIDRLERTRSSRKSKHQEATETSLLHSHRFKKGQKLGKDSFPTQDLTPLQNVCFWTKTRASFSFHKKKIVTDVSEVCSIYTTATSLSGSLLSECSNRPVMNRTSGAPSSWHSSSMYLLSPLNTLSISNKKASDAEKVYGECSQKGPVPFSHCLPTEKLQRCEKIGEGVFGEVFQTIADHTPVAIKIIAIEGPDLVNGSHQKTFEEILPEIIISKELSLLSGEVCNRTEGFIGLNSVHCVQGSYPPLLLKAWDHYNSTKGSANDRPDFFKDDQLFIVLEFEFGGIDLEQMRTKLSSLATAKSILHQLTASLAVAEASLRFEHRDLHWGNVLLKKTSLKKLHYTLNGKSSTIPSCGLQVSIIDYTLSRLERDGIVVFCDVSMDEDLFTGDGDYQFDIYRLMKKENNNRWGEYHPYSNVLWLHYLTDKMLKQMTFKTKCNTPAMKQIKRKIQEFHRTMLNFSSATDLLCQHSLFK
Procedure: HASPIN biochemical Assay: The biochemical assay to measure HASPIN activity relies on the ADP-Glo™ assay kit (Promega) that determines the amount of ADP as direct product of the kinase enzyme activity. Assay conditions were as indicated by the kit manufacturers with the following adaptations for the kinase activity step: Kinase assay buffer and assay volume (15 mM HEPES pH 7.5, 20 mM NaCl, 1 mM EGTA, 0.02% TWEEN 20, 10 mM MgCl2, 0.1 mg/mL BGG)/25 µL assay volume). Incubation time and temperature: 60 min at 30 °C. HASPIN final concentration: 0.9 µg/mL. ATP final concentration: 150 µM. HASPIN autophosphorylation was measured. Assays were performed in 384-well plates. The final outcome of the coupled reactions provided by the kit is the release of […] and has been measured with a multilabel HTS counter Victor V / Envision. Values were normalized against the control activity included (100% HASPIN activity, without compound). Values were plotted against the inhibitor concentration and fit to a sigmoid dose-response curve using Activity base by IDBS software.

| IC50 | Structure (SMILES) |
| --- | --- |
| 30 nM | NC(=O)c1cn2cc(-c3ccncc3)nc(NCC3CCNCC3)c2n1 [Compound 2, 8-[(Piperidin-4-ylmethyl)-amino]-6-pyridin-4-yl-imidazo[1,2-a]pyrazine-2-carboxylic acid amide] |
| 229 nM | COCCNC(=O)c1cn2cc(-c3ccncc3)nc(NCC3CCNCC3)c2n1 [Compound 5, 8-[(Piperidin-4-ylmethyl)-amino]-6-pyridin-4-yl-imidazo[1,2-a]pyrazine-2-carboxylic acid (2-methoxy-ethyl)-amide] |
| 59.6 nM | N#CC1(CNc2nc(-c3ccnc(Cl)c3)cn3cc(C(N)=O)nc23)CCNCC1 [Compound 6, 6-(2-Chloro-pyridin-4-yl)-8-[(4-cyano-piperidin-4-ylmethyl)-amino]-imidazo[1,2-a]pyrazine-2-carboxylic acid amide] |
| 60 nM | CNC(=O)c1nc2c(NCC3CCNCC3)nc(-c3ccncc3)cn2c1C [Compound 7, 3-Methyl-8-[(piperidin-4-ylmethyl)-amino]-6-pyridin-4-yl-imidazo[1,2-a]pyrazine-2-carboxylic acid methylamide] |
| 180 nM | Cc1c(C(N)=O)nc2c(NCC3CCNCC3)nc(-c3ccncc3)cn12 [Compound 9, 3-Methyl-8-[(piperidin-4-ylmethyl)-amino]-6-pyridin-4-yl-imidazo[1,2-a]pyrazine-2-carboxylic acid amide] |
| 65 nM | CNC(=O)c1nc2c(NCC3CCNCC3)nc(-c3ccnc(Cl)c3)cn2c1C [Compound 11, 6-(2-Chloro-pyridin-4-yl)-3-methyl-8-[(piperidin-4-ylmethyl)-amino]-imidazo[1,2-a]pyrazine-2-carboxylic acid methylamide] |
| 253 nM | Cc1c(C(N)=O)nc2c(NCC3CCNCC3)nc(-c3ccnc(Cl)c3)cn12 [Compound 12, 6-(2-Chloro-pyridin-4-yl)-3-methyl-8-[(piperidin-4-ylmethyl)-amino]-imidazo[1,2-a]pyrazine-2-carboxylic acid amide] |
| 78 nM | CNC(=O)c1nc2c(NCC3(F)CCNCC3)nc(-c3ccncc3)cn2c1C [Compound 14, 8-[(4-Fluoro-piperidin-4-ylmethyl)-amino]-3-methyl-6-pyridin-4-yl-imidazo[1,2-a]pyrazine-2-carboxylic acid methylamide] |
| 25.9 nM | NC(=O)c1cn2cc(-c3ccncc3)nc(NCC3(F)CCNCC3)c2n1 [Compound 15, 8-[(4-Fluoro-piperidin-4-ylmethyl)-amino]-6-pyridin-4-yl-imidazo[1,2-a]pyrazine-2-carboxylic acid amide] |
| 96 nM | Cc1c(C(N)=O)nc2c(NCC3(F)CCNCC3)nc(-c3ccncc3)cn12 [Compound 16, 8-[(4-Fluoro-piperidin-4-ylmethyl)-amino]-3-methyl-6-pyridin-4-yl-imidazo[1,2-a]pyrazine-2-carboxylic acid amide] |
| 18.2 nM | CNC(=O)c1nc2c(NCC3(C#N)CCNCC3)nc(-c3ccncc3)cn2c1C [Compound 17, 8-[(4-Cyano-piperidin-4-ylmethyl)-amino]-3-methyl-6-pyridin-4-yl-imidazo[1,2-a]pyrazine-2-carboxylic acid methylamide] |
| 138 nM | COCCNC(=O)c1nc2c(NCC3(C#N)CCNCC3)nc(-c3ccncc3)cn2c1C [Compound 18, 8-[(4-Cyano-piperidin-4-ylmethyl)-amino]-3-methyl-6-pyridin-4-yl-imidazo[1,2-a]pyrazine-2-carboxylic acid (2-methoxy-ethyl)-amide] |
| 45.7 nM | Cc1c(C(N)=O)nc2c(NCC3(C#N)CCNCC3)nc(-c3ccncc3)cn12 [Compound 19, 8-[(4-Cyano-piperidin-4-ylmethyl)-amino]-3-methyl-6-pyridin-4-yl-imidazo[1,2-a]pyrazine-2-carboxylic acid amide] |
| 78.8 nM | CNC(=O)c1nc2c(NCC3(F)CCNCC3)nc(-c3ccnc(Cl)c3)cn2c1C [Compound 20, 6-(2-Chloro-pyridin-4-yl)-8-[(4-fluoro-piperidin-4-ylmethyl)-amino]-3-methyl-imidazo[1,2-a]pyrazine-2-carboxylic acid methylamide] |
